Source: patent US11173162B2, “Bicyclic heterocycles as FGFR4 inhibitors” (Incyte Corporation, priority 2015, dated 2021)

How the values were obtained:
FGFR3 enzyme = assay: FGFR Enzymatic Assay (FRET peptide phosphorylation), FGFR3; type: biochemical; settings: IC50 ratio showing FGFR3 selectivity; Table 2A, pre-incubated for 4 hours
Method: (§1) The inhibitor potency of the exemplified compounds was measured in an enzyme assay that measures peptide phosphorylation using FRET measurements to detect product formation. Inhibitors were serially diluted in DMSO and a volume of 0.5 μL was transferred to the wells of a 384-well plate.
(§2) GraphPad prism3 was used to analyze the data.

FGFR4 = FGFR4 (Homo sapiens (Human), UniProt P22455); assay: FGFR Enzymatic Assay (FRET peptide phosphorylation), FGFR4; type: biochemical
Chain of FGFR4 (P22455 22-802): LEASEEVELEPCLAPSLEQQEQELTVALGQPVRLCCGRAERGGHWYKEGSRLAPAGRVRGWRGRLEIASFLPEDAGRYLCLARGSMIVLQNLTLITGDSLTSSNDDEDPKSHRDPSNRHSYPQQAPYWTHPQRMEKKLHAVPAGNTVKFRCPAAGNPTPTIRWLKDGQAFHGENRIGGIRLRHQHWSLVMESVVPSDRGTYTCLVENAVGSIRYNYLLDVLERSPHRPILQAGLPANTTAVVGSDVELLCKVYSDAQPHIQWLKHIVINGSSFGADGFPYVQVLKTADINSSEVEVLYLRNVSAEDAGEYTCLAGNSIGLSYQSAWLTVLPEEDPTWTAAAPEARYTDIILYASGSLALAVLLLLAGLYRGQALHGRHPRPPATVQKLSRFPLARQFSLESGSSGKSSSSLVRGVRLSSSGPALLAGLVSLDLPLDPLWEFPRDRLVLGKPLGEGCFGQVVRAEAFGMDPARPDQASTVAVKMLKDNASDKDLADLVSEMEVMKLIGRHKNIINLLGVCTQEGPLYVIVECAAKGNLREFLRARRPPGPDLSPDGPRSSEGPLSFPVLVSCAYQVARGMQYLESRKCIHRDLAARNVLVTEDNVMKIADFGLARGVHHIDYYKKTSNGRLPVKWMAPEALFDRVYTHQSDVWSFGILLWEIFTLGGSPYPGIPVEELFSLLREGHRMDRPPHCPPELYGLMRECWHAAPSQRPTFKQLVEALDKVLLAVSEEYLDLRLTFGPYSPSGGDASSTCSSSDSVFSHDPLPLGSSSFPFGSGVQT
Method: as §1
The enzymes were purchased from Millipore or Invitrogen.
as §2

[1] = IC50 ratio showing FGFR4 selectivity, Table 2, pre-incubated for 4 hours
[2] = ratio of IC50 data showing FGFR4 selectivity, Table 4, pre-incubated for 5 to 10 minutes

| Structure (SMILES) | FGFR1/FGFR3 (FGFR3 enzyme) | FGFR1/FGFR4 (FGFR4; [1]) | FGFR2/FGFR4 (FGFR4; [1]) | FGFR3/FGFR4 (FGFR4; [1]) | FGFR1/FGFR4 (FGFR4; [2]) | FGFR2/FGFR4 (FGFR4; [2]) | FGFR3/FGFR4 (FGFR4; [2]) |
| --- | --- | --- | --- | --- | --- | --- | --- |
| COc1cc(OC)c(F)c(N2Cc3cnc(-c4cncc(NS(C)(=O)=O)c4)cc3C3(CC3)C2=O)c1F [Example 15, N-(5-(2′-(2,6-difluoro-3,5-dimethoxyphenyl)-3′-oxo-2′,3′-dihydro-1′H-spiro[cyclopropane-1,4′-[2,7]naphthyridine]-6′-yl)pyridin-3-yl)methanesulfonamide] | >3 | >50 | >25 | >10 | >50 | >25 | >10 |
| COc1cc(OC)c(F)c(N2Cc3cnc(-c4cc(N)cnc4C)cc3C3(CC3)C2=O)c1F [Example 7, 6′-(5-amino-2-methylpyridin-3-yl)-2′-(2,6-difluoro-3,5-dimethoxyphenyl)-1′H-spiro[cyclopropane-1,4′-[2,7]naphthyridin]-3′(2′H)-one] | >1 | >50 | >25 | >25 | >25 | >10 | >10 |
| COc1cc(OC)c(F)c(N2Cc3cnc(-c4cncc(N5CCOCC5)c4)cc3C3(CC3)C2=O)c1F [Example 6, 2′-(2,6-difluoro-3,5-dimethoxyphenyl)-6′-(5-morpholinopyridin-3-yl)-1′H-spiro[cyclopropane-1,4′-[2,7]naphthyridin]-3′(2′H)-one] | >3 | >100 | >100 | >25 | >100 | >100 | >50 |
| COc1cc(OC)c(F)c(N2Cc3cnc(-c4cncc(-n5ccnc5)c4)cc3C3(CC3)C2=O)c1F [Example 12, 6′-(5-(1H-imidazol-1-yl)pyridin-3-yl)-2′-(2,6-difluoro-3,5-dimethoxyphenyl)-1′H-spiro[cyclopropane-1,4′-[2,7]naphthyridin]-3′(2′H)-one] | >3 | >50 | >25 | >10 | >50 | >25 | >20 |
| COc1cc(OC)c(F)c(N2Cc3cnc(-c4cncc(CN5CCOCC5)c4)cc3C3(CC3)C2=O)c1F [Example 16, 2′-(2,6-difluoro-3,5-dimethoxyphenyl)-6′-(5-(morpholinomethyl)pyridin-3-yl)-1′H-spiro[cyclopropane-1,4′-[2,7]naphthyridin]-3′(2′H)-one] | >1 | >50 | >25 | >10 | >25 | >10 | >10 |
| COc1cc(OC)c(F)c(N2Cc3cnc(-c4cncc(C(=O)N5CCOCC5)c4)cc3C3(CC3)C2=O)c1F [Example 13, 2′-(2,6-difluoro-3,5-dimethoxyphenyl)-6′-(5-(morpholine-4-carbonyl)pyridin-3-yl)-1′H-spiro[cyclopropane-1,4′-[2,7]naphthyridin]-3′(2′H)-one] | >3 | >50 | >25 | >10 | >50 | >20 | >10 |
| COc1cc(OC)c(F)c(N2Cc3cnc(-c4cncc(N)c4)cc3C3(CC3)C2=O)c1F [Example 4, 6′-(5-aminopyridin-3-yl)-2′-(2,6-difluoro-3,5-dimethoxyphenyl)-1′H-spiro[cyclopropane-1,4′-[2,7]naphthyridin]-3′(2′H)-one] | >1 | >25 | >10 | >10 | >10 | >10 | >5 |
| COc1cc(OC)c(F)c(N2Cc3cnc(-c4cncc(C#N)c4)cc3C3(CC3)C2=O)c1F [Example 8, 5-(2′-(2,6-difluoro-3,5-dimethoxyphenyl)-3′-oxo-2′,3′-dihydro-1′H-spiro[cyclopropane-1,4′-[2,7]naphthyridine]-6′-yl)nicotinonitrile] | >5 | >50 | >10 | >10 | >50 | >10 | >10 |
| COc1cc(OC)c(F)c(N2Cc3cnc(-c4cccnc4)cc3C3(CC3)C2=O)c1F [Example 9, 2′-(2,6-difluoro-3,5-dimethoxyphenyl)-6′-(pyridin-3-yl)-1′H-spiro[cyclopropane-1,4′-[2,7]naphthyridin]-3′(2′H)-one] | >3 | >10 | >1 | >1 | >5 | >1 | >1 |
| COc1cc(OC)c(F)c(N2Cc3cnc(-c4cncc(S(=O)(=O)N5CCOCC5)c4)cc3C3(CC3)C2=O)c1F [Example 14, 2′-(2,6-difluoro-3,5-dimethoxyphenyl)-6′-(5-(morpholinosulfonyl)pyridin-3-yl)-1′H-spiro[cyclopropane-1,4′-[2,7]naphthyridin]-3′(2′H)-one] | >5 | >50 | >10 | >1 | >25 | >5 | >5 |
